Test results taken from paper PMC9747717, “A novel small molecule inhibitor of human Drp1” (Scientific Reports, 2022).
Several values for one entry are separate records, joined by “and”; a condition that tells them apart may be missing. Equal entries are not always repeated.

How the values were obtained:
[1] = tested on: HL-1 cells; assay: Simulated ischaemia-reperfusion injury, cell death; assay type: cell-based, Murine; settings: 50 µM during simulated ischaemia-reperfusion; DMSO 29.55 ± 5.45%
Procedure: HL-1 cells were plated in 24-well plate pre-coated with 5 μg/mL human fibronectin (Merck Millipore, MA, USA) in 0.02% porcine gelatin solution (Sigma-Aldrich, MA, USA). Cells were maintained in Claycomb media (Sigma-Aldrich) supplemented with 0.1 mM (±)-norepinephrine (+)-bitartrate salt (Sigma-Aldrich), 2 mM GlutaMAX (Thermo Fisher Scientific, MA, USA), 100 μg/mL penicillin/streptomycin (Thermo Fisher Scientific) and 10% non-heat inactivated foetal bovine serum (FBS) (Bovogen Biologicals, Victoria, Australia). The simulated ischaemia–reperfusion injury was performed as described in Rosdah et al.[25]. To simulate ischaemia, cells were cultured in ischaemic buffer (25 mM NaHEPES, 1 mM KH2PO4, 10 mM NaHCO3, 74 mM NaCl, 1.2 mM MgCl2.6H2O, 16 mM KCl, 1.2 mM CaCl2, 10 mM 2-deoxy-d-glucose) and hypoxia (< 0.1% O2) was induced in an airtight GENBox anaerobic chamber containing a Genbox Anaer generator sachet (BioMérieux, Marcy l’Etoile, France) at 37 °C. […] Cell death was determined by staining with 1 μg/mL propidium iodide and 3 μg/mL Hoechst 33258. The number of dead cells (propidium iodide positive) was counted and expressed as a percentage over total number of cells (Hoechst 33258 positive). At least 100 cells were counted per group for each independent experiment.

[2] = tested on: Human foreskin fibroblasts; assay: Mitochondrial morphology analysis in human fibroblasts; assay type: cell-based
Procedure: (§1) Human foreskin fibroblasts and Drp1 wildtype and KO MEF (kindly provided by Professor Hiromi Sesaki, Johns Hopkins University, USA)[28],[29] were transduced with pAS2.EYFP.puro lentiviruses (RNAiCore, Academia Sinica, Taiwan) carrying the mitochondrial-targeted EGFP sequence as described in Kalkhoran et al.[30]. Cells were then treated with DRP1i27 (5, 10 or 50 µM) or 0.1% DMSO vehicle control for 24 h.
(§2) Mitochondrial morphology in HL-1 cells were visualised by immunostaining of mitochondrial Hsp60 antibody (Abcam, MA, USA). Images were acquired using Olympus BX60 fluorescence microscope at 600 × magnification and analysed using Fiji imaging software (ImageJ v1.53c). Cells were categorised into predominantly (> 50%) having fused or fragmented mitochondria. At least 100 cells were analysed for each treatment group.

[3] = biological target: T1, human Drp1 isoform 3 (Homo sapiens, UniProt O00429); assay: Drp1 GTPase activity, colorimetric malachite green assay; assay type: biochemical
T1 construct: His tag; made in house; host or cells: E. coli Rosetta (DE3), pET21b vector
Procedure: The GTPase activity of Drp1, which is required for the latter to mediate mitochondrial fission, was examined using the colorimetric GTPase assay kit (Innova Biosciences, Cambridge, UK) according to the manufacturer’s instructions. Compounds were diluted in DMSO (all with a final concentration of 0.1% DMSO). Recombinant human Drp1 protein isoform-3 (final concentration 0.25 ng/µL) was diluted in assay buffer containing 50 mM Tris HCl (pH 7.5) and 2.5 mM MgCl2, followed by incubation with compounds for 15 min at 37 °C in a 96 well plate. 0.5 mM GTP, diluted in assay buffer, was then added into the mixture followed by incubation at 37 °C for 30 min.
Upon binding to Drp1, GTP is hydrolysed into GDP and free phosphate (Pi)[24]. Therefore, the degree of GTPase inhibition was assessed by measuring the concentration of Pi released into the assay buffer, which is detected by a malachite green-based dye. The intensity of Pi-dye complex was assessed by measuring the light absorbance at 635 nm wavelength using a microplate reader (BenchMark Plus, MS, USA). Absorbance of each experimental group was normalised to the vehicle control (DMSO).

[4] = biological target: T1, human Drp1 isoform 3; assay: Microscale thermophoresis (MST) binding; settings: human Drp1 isoform 3, 5% DMSO
Procedure: The recombinant human Drp1 protein (His-tagged human Drp1 isoform 3, kindly provided by Professor Michael Ryan, Monash University, Australia) was generated as described previously. Briefly, cDNA for human Drp1 (isoform 3) was cloned into pET21b vector and transformed in Rosetta (DE3) competent cells (Novagen, MA, Merck Millipore). Transformed cells were propagated in Luria–Bertani broth and protein expression was initiated by the addition of 0.5 mM isopropyl β-D-1-thiogalactopyranoside. Cells were harvested by centrifugation at 3,500 g for 20 min at 4 °C, and the pellet was re-suspended in lysis buffer containing 50 mM Tris HCl (pH 7.3), 500 mM NaCl, 50 mM imidazole, 2.5 mM β-mercaptoethanol, 0.01 mM LEUPEP, 0.1 mM AEBSF and 1 mM benzaminidium chloride. The cells were lysed using a pre-cooled EmulsiFlex-C5 homogenizer (Avestin, Ontario, Canada) on ice and clarified by centrifugation at 17,000 g for 30 min. The clarified cell lysate was loaded onto a 5 mL Nickel Chelating Sepharose Fast Flow column (GE Healthcare, Buckinghamshire, UK) and Drp1 protein was eluted with wash buffer containing 50 mM Tris–HCl (pH 7.6), 150 mM NaCl, 2.5 mM β-mercaptoethanol and 400 mM imidazole. […]
Compound binding was assessed in against the human Drp1 isoform-3 protein using MST Monolith NT.115 instrument (NanoTemper Technologies, Mȕnchen, Germany). […]

[5] = tested on: Drp1 wild type MEFs; assay: Mitochondrial morphology analysis in Drp1 wild type MEF; assay type: cell-based, mouse; settings: statistical significance at 10 and 50 µM
Procedure: as §1, §2

[6] = tested on: Drp1 KO MEFs; assay: Mitochondrial morphology analysis in Drp1 KO MEF; assay type: cell-based, mouse; settings: Drp1 KO MEFs, 5, 10 or 50 µM
Procedure: as §1, §2

T1 sequence (O00429 1-699 isoform O00429-4): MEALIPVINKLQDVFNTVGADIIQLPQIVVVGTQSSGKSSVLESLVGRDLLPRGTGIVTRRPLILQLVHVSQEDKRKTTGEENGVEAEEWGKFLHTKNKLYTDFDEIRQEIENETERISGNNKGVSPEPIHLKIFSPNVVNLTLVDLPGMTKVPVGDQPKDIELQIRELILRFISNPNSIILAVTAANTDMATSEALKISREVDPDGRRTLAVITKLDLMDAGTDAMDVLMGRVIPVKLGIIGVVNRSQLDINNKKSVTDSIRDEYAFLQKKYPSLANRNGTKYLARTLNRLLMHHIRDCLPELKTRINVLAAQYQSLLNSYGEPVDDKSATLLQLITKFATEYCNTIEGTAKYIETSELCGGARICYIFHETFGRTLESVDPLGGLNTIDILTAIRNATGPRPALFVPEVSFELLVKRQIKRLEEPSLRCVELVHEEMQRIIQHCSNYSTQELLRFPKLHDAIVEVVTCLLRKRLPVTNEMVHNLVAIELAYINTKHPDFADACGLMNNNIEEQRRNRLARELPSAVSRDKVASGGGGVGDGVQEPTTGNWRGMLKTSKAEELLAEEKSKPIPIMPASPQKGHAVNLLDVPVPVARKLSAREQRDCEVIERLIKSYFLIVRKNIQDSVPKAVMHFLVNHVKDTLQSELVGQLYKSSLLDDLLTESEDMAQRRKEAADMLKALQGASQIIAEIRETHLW

Cc1nc[nH]c1CN1C[C@@H]2CC[C@H](C1)N(Cc1ccc(-c3cc[nH]n3)o1)C2 [DRP1i27]
cell death [1]: 15.17 ± 3.67% | percentage of cells with elongated mitochondria ([2]; basal condition, compared to DMSO control): significant increase | cellular networks of mitochondria ([2]; human fibroblasts, 5, 10 or 50 µM, 24 h): increase cellular networks of mitochondria | inhibition of GTPase activity of human Drp1 ([3]; 5 µM): statistically significant reduction | inhibition of the conversion of GTP to GDP ([3]; 5–50 µM): trend of inhibition | Kd [4]: 191 µM and 190 µM | cellular networks of mitochondria [5]: dose-dependent response | cellular networks of mitochondria [6]: no significant effect
